Source: ChEMBL document CHEMBL1124322, “Synthesis and alpha 2-adrenoceptor antagonist activity of some disulfonamidobenzoquinolizines” (J Med Chem, 1989)

Experiments:
[1] = molecular target: T1, Adrenergic receptor alpha-2 (Rattus norvegicus, UniProt P22086+P19328+P22909); test: Antagonist activity against alpha-2 adrenergic receptor of rat vas deferens; format: functional, tissue-based
T1 sequence (P22086 whole entry): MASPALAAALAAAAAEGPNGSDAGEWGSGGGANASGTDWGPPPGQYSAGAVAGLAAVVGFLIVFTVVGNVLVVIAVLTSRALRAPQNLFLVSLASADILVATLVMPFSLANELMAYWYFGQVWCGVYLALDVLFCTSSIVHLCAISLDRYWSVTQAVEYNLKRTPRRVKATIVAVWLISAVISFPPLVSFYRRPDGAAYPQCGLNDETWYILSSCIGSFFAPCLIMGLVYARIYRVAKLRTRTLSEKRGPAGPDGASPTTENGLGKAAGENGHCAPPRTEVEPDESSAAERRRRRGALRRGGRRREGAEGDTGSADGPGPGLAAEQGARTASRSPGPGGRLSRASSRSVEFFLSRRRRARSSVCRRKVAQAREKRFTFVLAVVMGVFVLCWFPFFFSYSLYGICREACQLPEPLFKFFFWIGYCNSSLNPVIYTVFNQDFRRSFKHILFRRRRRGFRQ
T1 sequence (P19328 whole entry): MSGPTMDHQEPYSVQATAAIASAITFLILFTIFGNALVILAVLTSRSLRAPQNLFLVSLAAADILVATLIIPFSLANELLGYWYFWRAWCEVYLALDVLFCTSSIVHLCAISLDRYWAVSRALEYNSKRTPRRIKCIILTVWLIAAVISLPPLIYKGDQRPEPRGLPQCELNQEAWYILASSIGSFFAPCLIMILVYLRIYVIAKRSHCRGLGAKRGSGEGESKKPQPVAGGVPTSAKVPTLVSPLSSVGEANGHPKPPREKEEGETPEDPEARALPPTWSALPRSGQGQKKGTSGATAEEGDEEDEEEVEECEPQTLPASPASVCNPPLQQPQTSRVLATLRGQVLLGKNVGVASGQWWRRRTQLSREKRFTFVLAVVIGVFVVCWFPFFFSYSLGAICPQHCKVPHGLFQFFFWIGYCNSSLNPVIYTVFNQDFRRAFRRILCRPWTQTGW
T1 sequence (P22909 whole entry): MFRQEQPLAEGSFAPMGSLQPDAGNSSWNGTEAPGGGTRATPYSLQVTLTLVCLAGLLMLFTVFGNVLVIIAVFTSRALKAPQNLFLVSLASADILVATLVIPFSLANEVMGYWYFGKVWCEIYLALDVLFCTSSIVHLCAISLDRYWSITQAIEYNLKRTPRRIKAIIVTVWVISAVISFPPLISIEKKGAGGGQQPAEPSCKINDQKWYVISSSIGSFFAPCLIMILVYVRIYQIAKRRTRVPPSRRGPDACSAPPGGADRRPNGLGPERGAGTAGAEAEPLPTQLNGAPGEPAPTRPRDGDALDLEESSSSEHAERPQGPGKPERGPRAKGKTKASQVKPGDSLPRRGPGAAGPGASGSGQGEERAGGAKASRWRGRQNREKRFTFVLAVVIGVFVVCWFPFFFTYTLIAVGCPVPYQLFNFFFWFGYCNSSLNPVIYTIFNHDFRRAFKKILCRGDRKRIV

[2] = molecular target: T2, Adrenergic receptor alpha-1 (Rattus norvegicus, UniProt P15823+P23944+P43140); test: Antagonist activity against Alpha-1 adrenergic receptor of rat anococcygeus muscle; format: functional
T2 sequence (P15823 whole entry): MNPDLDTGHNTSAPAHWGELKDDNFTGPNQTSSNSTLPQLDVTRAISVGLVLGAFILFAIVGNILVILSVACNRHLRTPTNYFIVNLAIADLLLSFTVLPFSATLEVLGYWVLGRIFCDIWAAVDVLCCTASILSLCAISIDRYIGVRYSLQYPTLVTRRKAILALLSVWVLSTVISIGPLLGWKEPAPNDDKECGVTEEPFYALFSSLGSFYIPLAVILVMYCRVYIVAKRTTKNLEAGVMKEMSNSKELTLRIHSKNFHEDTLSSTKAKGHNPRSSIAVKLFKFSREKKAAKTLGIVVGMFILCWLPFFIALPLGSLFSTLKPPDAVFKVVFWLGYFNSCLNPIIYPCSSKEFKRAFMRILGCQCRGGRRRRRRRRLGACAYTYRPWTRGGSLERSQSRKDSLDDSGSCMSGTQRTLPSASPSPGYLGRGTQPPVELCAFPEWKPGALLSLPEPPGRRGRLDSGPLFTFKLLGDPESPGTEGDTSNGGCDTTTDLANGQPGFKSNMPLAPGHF
T2 sequence (P23944 whole entry): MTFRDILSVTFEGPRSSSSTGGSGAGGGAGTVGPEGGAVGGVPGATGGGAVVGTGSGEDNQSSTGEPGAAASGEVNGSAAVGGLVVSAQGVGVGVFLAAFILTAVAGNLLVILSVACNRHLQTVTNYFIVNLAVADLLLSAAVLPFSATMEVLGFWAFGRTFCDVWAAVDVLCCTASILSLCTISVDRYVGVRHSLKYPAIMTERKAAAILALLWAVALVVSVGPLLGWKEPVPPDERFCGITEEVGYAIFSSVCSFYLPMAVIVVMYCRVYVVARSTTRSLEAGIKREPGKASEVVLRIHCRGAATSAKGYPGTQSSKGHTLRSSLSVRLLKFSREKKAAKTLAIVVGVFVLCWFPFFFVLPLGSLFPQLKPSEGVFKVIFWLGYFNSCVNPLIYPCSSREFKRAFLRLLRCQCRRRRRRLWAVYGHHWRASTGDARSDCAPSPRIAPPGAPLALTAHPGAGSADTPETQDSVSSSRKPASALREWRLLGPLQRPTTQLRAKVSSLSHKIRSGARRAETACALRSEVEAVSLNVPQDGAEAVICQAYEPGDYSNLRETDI
T2 sequence (P43140 whole entry): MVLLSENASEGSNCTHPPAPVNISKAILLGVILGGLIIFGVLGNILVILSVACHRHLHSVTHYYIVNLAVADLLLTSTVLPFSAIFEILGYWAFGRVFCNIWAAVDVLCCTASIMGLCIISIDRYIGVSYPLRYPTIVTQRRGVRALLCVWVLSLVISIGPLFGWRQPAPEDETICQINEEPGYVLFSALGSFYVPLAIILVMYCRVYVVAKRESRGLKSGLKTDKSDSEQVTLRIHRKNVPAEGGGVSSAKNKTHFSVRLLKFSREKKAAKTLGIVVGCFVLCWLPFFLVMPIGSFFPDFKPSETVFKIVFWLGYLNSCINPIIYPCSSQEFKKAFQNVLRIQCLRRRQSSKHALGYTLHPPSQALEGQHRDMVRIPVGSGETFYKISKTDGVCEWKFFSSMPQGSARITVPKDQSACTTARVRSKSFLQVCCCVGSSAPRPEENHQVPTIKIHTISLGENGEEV

[3] = molecular target: T1, Adrenergic receptor alpha-2; test: Antagonism of rat alpha-2 adrenergic receptor from rat vas deferens; format: functional
[4] = system: Adrenergic receptor alpha (Rattus norvegicus); test: Selectivity ratio towards alpha-2 and alpha1 expressed as antilog(alpha-2pA2-alpha-1pA2)
[5] = molecular target: Adrenergic receptor alpha (Rattus norvegicus) (UniProt P15823+P23944+P43140+P22086+P19328+P22909); test: Ratio of pA2 values at alpha-1 and alpha-2 adrenergic receptors.; format: protein assay
[6] = molecular target: T2, Adrenergic receptor alpha-1; test: Antagonist activity against alpha-1 adrenergic receptor of rat anococcygeus muscle.; format: functional

pA2 [1]	pA2 [2]	pA2 [3]	Ratio [4]	Ratio [5]	pA2 [6]	Compound
8.04	–	–	–	–	–	CS(=O)(=O)NCCN([C@@H]1CCN2CCc3ccccc3[C@@H]2C1)S(=O)(=O)c1ccc(Cl)cc1
–	6.2	8.1	79	–	–	CS(=O)(=O)N(CCNS(=O)(=O)CCl)[C@@H]1CCN2CCc3ccccc3[C@@H]2C1
–	–	8	–	40	6.4	Cc1cccc(S(=O)(=O)N(CCNS(C)(=O)=O)[C@@H]2CCN3CCc4ccccc4[C@@H]3C2)c1
–	–	6.7	–	10	5.7	CCCS(=O)(=O)NCCN([C@@H]1CCN2CCc3ccccc3[C@@H]2C1)S(C)(=O)=O
–	–	5.9	–	1	5.9	CS(=O)(=O)N(CCNS(=O)(=O)c1ccccc1)[C@@H]1CCN2CCc3ccccc3[C@@H]2C1
–	–	8.1	–	100	6.1	COc1ccc(S(=O)(=O)N(CCNS(C)(=O)=O)[C@@H]2CCN3CCc4ccccc4[C@@H]3C2)cc1
–	–	8.12	–	91	6.16	CS(=O)(=O)NCCN([C@@H]1CCN2CCc3ccccc3[C@@H]2C1)S(=O)(=O)c1ccccc1
–	–	7.62	–	–	6.6	CCS(=O)(=O)NCCN([C@@H]1CCN2CCc3ccccc3[C@@H]2C1)S(=O)(=O)c1ccc(C)cc1
–	–	8.29	–	310	5.8	CCCS(=O)(=O)N(CCNS(C)(=O)=O)[C@@H]1CCN2CCc3ccccc3[C@@H]2C1
–	–	–	–	55	–	CCCS(=O)(=O)N(C)[C@@H]1CCN2CCc3ccccc3[C@@H]2C1
–	–	6.14	–	–	–	CC(C)(CN([C@@H]1CCN2CCc3ccccc3[C@@H]2C1)S(C)(=O)=O)NS(C)(=O)=O
–	–	6.4	–	–	–	CS(=O)(=O)N(CCNS(=O)(=O)C(F)(F)F)[C@@H]1CCN2CCc3ccccc3[C@@H]2C1
–	–	6.03	–	3	5.5	CN(CCN([C@@H]1CCN2CCc3ccccc3[C@@H]2C1)S(C)(=O)=O)S(C)(=O)=O
–	–	7.7	–	100	5.7	CS(=O)(=O)NCCN([C@@H]1CCN2CCc3ccccc3[C@@H]2C1)S(=O)(=O)c1ccc(F)cc1
–	–	7.93	–	410	5.32	CS(=O)(=O)NCCN([C@@H]1CCN2CCc3ccccc3[C@@H]2C1)S(C)(=O)=O
–	6.33	8	47	–	–	O=S(=O)(CCl)NCCN([C@@H]1CCN2CCc3ccccc3[C@@H]2C1)S(=O)(=O)CCl
–	–	8.4	–	400	5.8	Cc1ccc(S(=O)(=O)N(CCNS(C)(=O)=O)[C@@H]2CCN3CCc4ccccc4[C@@H]3C2)cc1
–	–	7.73	–	120	5.65	CCS(=O)(=O)NCCN([C@@H]1CCN2CCc3ccccc3[C@@H]2C1)S(C)(=O)=O
–	–	7.69	–	10	6.7	CS(=O)(=O)NCCN([C@@H]1CCN2CCc3ccccc3[C@@H]2C1)S(=O)(=O)c1cccc([N+](=O)[O-])c1
–	–	8.34	–	490	5.65	CCS(=O)(=O)N(CCNS(C)(=O)=O)[C@@H]1CCN2CCc3ccccc3[C@@H]2C1
–	–	5.7	–	1	5.7	CS(=O)(=O)NCCCN([C@@H]1CCN2CCc3ccccc3[C@@H]2C1)S(C)(=O)=O
–	–	8.1	–	–	–	CCCS(=O)(=O)N(CCNS(=O)(=O)CC)[C@@H]1CCN2CCc3ccccc3[C@@H]2C1
–	–	5.66	–	–	–	CS(=O)(=O)NCCCCN([C@@H]1CCN2CCc3ccccc3[C@@H]2C1)S(C)(=O)=O
–	–	8.27	–	540	5.54	CCS(=O)(=O)NCCN([C@@H]1CCN2CCc3ccccc3[C@@H]2C1)S(=O)(=O)CC
